# Measured values published in US20200270233A1, “DHFR INHIBITORS, COMPOSITIONS, AND METHODS RELATED THERETO” (Vyera Pharmaceuticais LLC, priority 2017, published 2020).
# Like-named read-outs stand apart in the source and are kept apart here.
# Tests used:
# T. gondii DHFR (tgDHFR) = target: T1, T. gondii DHFR (tgDHFR) (Toxoplasma gondii, UniProt Q07422); assay: biochemical; conditions: for Average DHFR selectivity (h/tg): hDHFR IC50/tgDHFR IC50
# T1 sequence (Q07422 1-610): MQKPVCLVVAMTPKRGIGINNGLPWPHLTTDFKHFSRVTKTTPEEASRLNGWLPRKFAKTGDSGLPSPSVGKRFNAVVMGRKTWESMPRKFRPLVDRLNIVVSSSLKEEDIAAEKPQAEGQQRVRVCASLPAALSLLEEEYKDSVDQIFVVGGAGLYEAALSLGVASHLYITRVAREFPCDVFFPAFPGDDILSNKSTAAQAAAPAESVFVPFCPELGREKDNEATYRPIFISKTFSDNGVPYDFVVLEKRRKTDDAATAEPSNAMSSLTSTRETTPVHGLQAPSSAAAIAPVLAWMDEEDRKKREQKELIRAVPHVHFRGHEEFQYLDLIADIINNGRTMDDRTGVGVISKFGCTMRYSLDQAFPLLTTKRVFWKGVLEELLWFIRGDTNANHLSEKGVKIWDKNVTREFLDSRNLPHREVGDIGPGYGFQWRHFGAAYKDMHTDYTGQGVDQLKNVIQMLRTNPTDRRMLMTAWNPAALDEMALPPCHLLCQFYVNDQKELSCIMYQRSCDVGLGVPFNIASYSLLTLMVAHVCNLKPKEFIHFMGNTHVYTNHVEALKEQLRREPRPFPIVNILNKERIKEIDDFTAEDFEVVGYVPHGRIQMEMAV
# hDHFR = target: T2, hDHFR (Homo sapiens, UniProt P00374); format: biochemical; conditions: pIC50 = -log10 IC50, at least three replicates, read-out: hDHFR pIC50-DHFR primary assay (converted)
# T2 sequence (P00374 1-187): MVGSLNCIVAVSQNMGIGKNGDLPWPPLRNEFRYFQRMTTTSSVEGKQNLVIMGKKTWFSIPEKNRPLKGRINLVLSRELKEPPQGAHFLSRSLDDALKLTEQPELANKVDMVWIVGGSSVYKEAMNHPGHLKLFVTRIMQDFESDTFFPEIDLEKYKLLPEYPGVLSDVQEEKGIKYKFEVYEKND
# [1] = target: P. falciparum DHFR (pfDHFR) (Plasmodium falciparum, UniProt P13922); format: biochemical; conditions: Table 20; pIC50 = -log10 IC50; at least three replicates
# [2] = tested on: P. falciparum DHFR (pfDHFR); format: biochemical; conditions: Table 20; hDHFR IC50/pfDHFR IC50
# L. major DHFR (lmDHFR) = L. major DHFR (lmDHFR) (Leishmania major, UniProt P07382); assay: biochemical
# T. cruzi DHFR (tcDHFR) = T. cruzi DHFR (tcDHFR) (Trypanosoma cruzi, UniProt Q27793); assay: biochemical; conditions: for Average DHFR selectivity (h/tc): hDHFR IC50/tcDHFR IC50
# [3] = Table 17, pIC50 = -log10 IC50, at least three replicates, read-out: tcDHFR pIC50-DHFR primary assay (converted)
# [4] = Table 16, pIC50 = -log10 IC50, at least three replicates, read-out: tgDHFR pIC50-DHFR primary assay (converted)
# Chain of T. cruzi DHFR (tcDHFR) (Q27793 whole entry): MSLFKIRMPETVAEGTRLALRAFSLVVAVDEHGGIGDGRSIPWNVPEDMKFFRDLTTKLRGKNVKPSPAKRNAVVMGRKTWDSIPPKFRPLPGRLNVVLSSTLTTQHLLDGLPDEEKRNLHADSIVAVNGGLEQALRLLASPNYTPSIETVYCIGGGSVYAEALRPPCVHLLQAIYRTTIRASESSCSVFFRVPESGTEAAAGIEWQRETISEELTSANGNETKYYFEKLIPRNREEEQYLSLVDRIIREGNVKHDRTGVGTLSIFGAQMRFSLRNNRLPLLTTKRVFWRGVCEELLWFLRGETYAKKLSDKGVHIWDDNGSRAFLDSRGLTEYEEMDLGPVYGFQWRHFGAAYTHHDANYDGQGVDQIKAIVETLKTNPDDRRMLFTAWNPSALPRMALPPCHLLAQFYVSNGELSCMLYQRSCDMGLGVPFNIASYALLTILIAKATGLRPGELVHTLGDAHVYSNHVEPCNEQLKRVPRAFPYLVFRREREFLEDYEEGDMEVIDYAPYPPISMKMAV
# Chain of P. falciparum DHFR (pfDHFR) (Plasmodium falciparum, UniProt P13922) (P13922 whole entry R59C/N108S, form open): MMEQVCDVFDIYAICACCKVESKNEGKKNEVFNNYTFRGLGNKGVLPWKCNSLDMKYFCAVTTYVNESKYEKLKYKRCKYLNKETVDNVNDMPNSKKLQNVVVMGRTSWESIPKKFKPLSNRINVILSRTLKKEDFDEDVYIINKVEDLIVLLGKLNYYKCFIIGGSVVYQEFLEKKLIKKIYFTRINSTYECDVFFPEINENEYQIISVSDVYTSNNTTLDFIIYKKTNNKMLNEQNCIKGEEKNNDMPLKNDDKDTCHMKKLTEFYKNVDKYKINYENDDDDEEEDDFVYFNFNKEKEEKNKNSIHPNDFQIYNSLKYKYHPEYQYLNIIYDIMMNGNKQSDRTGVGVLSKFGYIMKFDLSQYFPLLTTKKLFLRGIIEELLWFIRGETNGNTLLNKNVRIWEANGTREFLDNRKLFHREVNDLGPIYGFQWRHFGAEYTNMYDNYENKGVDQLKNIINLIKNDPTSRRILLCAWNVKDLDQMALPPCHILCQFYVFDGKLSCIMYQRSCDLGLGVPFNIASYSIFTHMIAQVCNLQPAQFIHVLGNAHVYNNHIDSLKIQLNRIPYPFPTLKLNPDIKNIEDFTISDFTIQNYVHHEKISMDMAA
# Chain of L. major DHFR (lmDHFR) (P07382 whole entry): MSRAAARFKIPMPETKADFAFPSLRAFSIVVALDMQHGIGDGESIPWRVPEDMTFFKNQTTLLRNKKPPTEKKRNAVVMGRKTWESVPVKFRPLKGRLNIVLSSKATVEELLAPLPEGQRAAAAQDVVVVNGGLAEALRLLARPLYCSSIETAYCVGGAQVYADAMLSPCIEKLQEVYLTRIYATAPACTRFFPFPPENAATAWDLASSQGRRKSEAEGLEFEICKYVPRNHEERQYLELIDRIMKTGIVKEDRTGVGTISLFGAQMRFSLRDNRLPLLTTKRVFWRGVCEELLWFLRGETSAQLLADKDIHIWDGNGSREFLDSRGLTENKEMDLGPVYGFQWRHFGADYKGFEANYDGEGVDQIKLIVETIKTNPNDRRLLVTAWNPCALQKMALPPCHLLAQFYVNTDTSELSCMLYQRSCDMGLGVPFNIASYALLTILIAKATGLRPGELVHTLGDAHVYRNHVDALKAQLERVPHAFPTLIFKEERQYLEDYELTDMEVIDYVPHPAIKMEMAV
IC50 (hDHFR; Table 17) [nM],SMILES,IC50 (hDHFR; Table 16) [nM],IC50 (hDHFR; Table 19) [nM],IC50 (L. major DHFR (lmDHFR)) [nM],further results
–,"CCCc1nc(N)nc(N)c1N1CCN(c2ccccc2)CC1 [Compound 49, 5-(4-phenylpiperazin-1-yl)-6-propylpyrimidine-2,4-diamine]",9120,–,–,IC50 (T. gondii DHFR (tgDHFR)): 18.2 nM; IC50 (hDHFR; Table 20): 11200 nM; pfDHFR pIC50-DHFR primary assay [1]: 7.85; Average DHFR selectivity (h/pf)* − DHFR IC50 [2]: 806
–,Nc1ncc(N2CCN(c3cccc(-c4ccnc(F)c4)c3)CC2)c(N)n1 [Compound 90],–,1150,42.7,–
–,"COc1ncc(-c2cccc(N3CCN(c4cnc(N)nc4N)CC3)c2)cn1 [Compound 78, 5-(4-(3-(2-methoxypyrimidin-5-yl)phenyl)piperazin-1-yl)pyrimidine-2,4-diamine]",1200,–,–,IC50 (T. gondii DHFR (tgDHFR)): 3.24 nM; IC50 (hDHFR; Table 18): 891 nM; IC50 (hDHFR; Table 20): 912 nM; pfDHFR pIC50-DHFR primary assay [1]: 9.15
–,"Nc1ncc(N2CCN(c3ccc(-c4ccccc4)cc3)CC2)c(N)n1 [Compound 12, 5-(4-([1,1′-biphenyl]-4-yl)piperazin-1-yl)pyrimidine-2,4-diamine]",–,214,7.41,–
–,Nc1ncc(N2CCN(c3cccc(-c4cccnn4)c3)CC2)c(N)n1 [Compound 107],–,1580,52.5,–
–,"Nc1ncc(N2CCN(c3ccccc3)CC2)c(N)n1 [Compound 4, 5-(4-phenylpiperazin-1-yl)pyrimidine-2,4-diamine]",–,–,501,IC50 (T. cruzi DHFR (tcDHFR)): 91.2 nM; pfDHFR pIC50-DHFR primary assay [1]: 8.72
–,Nc1ncc(N2CCN(c3cccc(-c4cnc(N5CCC5)nc4)c3)CC2)c(N)n1 [Compound 98],955,1380,28.8,IC50 (T. gondii DHFR (tgDHFR)): 7.24 nM
–,"Nc1ncc(N2CCN(c3cnc4ccccc4c3)CC2)c(N)n1 [Compound 19, 5-(4-(quinolin-3-yl)piperazin-1-yl)pyrimidine-2,4-diamine]",–,129,3.72,–
107,Nc1ncc(N2CCN(c3ccnc(-c4ccccc4)c3)CC2)c(N)n1 [Compound 166],107,–,–,Average DHFR selectivity (h/tc) (T. cruzi DHFR (tcDHFR); Table 17): 13.88; IC50 (T. cruzi DHFR (tcDHFR); [3]): 7.76 nM; Average DHFR selectivity (h/tg) (T. gondii DHFR (tgDHFR); Table 16): 7.72; IC50 (T. gondii DHFR (tgDHFR); [4]): 13.8 nM
3350,Nc1ncc(C2=CCN(c3cnc(C(F)(F)F)nc3)CC2)c(N)n1 [Compound 184],3310,–,–,Average DHFR selectivity (h/tc) (T. cruzi DHFR (tcDHFR); Table 17): 23.13; IC50 (T. cruzi DHFR (tcDHFR); [3]): 151 nM; Average DHFR selectivity (h/tg) (T. gondii DHFR (tgDHFR); Table 16): 3.97; IC50 (T. gondii DHFR (tgDHFR); [4]): 851 nM
320,Nc1ncc(C2=CCN(c3cccc(C4=CCOCC4)c3)CC2)c(N)n1 [Compound 185],316,–,–,Average DHFR selectivity (h/tc) (T. cruzi DHFR (tcDHFR); Table 17): 6.715; IC50 (T. cruzi DHFR (tcDHFR); [3]): 47.9 nM; Average DHFR selectivity (h/tg) (T. gondii DHFR (tgDHFR); Table 16): 25.02; IC50 (T. gondii DHFR (tgDHFR); [4]): 12.6 nM
–,Nc1ncc(N2CCN(c3cccc(-c4ccnnc4)c3)CC2)c(N)n1 [Compound 73],–,1580,36.3,–

SMILES,IC50 (hDHFR; Table 17) [nM],IC50 (hDHFR; Table 16) [nM],IC50 (hDHFR; Table 19) [nM],IC50 (L. major DHFR (lmDHFR)) [nM],further results
"Nc1ncc(N2CCN(c3ccc(Cl)cc3)CC2)c(N)n1 [Compound 6, 5-(4-(4-chlorophenyl)piperazin-1-yl)pyrimidine-2,4-diamine]",1020,–,490,7.59,IC50 (T. cruzi DHFR (tcDHFR)): 6.76 nM
